Laboratory results taken from PMC3914206.

Legend:
Assay type in all cases: binding
Conditions in all cases: Compound Concentration 10 µM
panel of 442 kinases [1] = molecular target: T1, panel of 442 kinases (Homo sapiens, UniProt Q14289)
T1 construct: purchased KINOMEscan
Description: (§1) We assessed the selectivity of members of this scaffold using the KINOMEscan methodology across a near comprehensive panel of 442 kinases [[18,27]].

panel of 442 kinases [2] = molecular target: T2, panel of 442 kinases (Homo sapiens, UniProt Q86V86)
T2 construct: purchased KINOMEscan
Description: as §1

panel of 442 kinases [3] = molecular target: T3, panel of 442 kinases (Homo sapiens, UniProt Q12851)
T3 construct: purchased KINOMEscan
T3 sequence (Q12851 1-820): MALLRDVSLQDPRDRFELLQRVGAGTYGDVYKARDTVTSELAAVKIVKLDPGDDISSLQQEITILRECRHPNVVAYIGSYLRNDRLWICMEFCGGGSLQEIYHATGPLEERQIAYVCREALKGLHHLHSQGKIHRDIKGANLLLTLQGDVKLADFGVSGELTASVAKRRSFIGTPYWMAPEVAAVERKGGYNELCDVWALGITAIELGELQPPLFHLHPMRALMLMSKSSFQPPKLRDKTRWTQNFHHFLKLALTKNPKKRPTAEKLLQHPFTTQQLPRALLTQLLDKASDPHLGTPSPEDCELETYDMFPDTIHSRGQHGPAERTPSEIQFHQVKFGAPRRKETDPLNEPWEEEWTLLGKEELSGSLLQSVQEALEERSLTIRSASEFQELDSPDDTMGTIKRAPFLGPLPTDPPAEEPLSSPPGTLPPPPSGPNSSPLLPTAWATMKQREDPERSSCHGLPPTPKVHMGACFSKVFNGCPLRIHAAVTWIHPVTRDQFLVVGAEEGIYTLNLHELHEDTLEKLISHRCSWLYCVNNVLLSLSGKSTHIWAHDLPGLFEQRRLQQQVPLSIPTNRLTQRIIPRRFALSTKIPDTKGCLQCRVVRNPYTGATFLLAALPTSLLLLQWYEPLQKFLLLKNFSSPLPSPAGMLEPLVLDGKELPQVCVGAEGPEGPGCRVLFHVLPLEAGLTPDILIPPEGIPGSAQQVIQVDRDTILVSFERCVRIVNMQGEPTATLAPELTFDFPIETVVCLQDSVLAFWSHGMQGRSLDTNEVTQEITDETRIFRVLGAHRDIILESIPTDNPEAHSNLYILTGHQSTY
Description: as §1

T1 sequence (Q14289 whole entry): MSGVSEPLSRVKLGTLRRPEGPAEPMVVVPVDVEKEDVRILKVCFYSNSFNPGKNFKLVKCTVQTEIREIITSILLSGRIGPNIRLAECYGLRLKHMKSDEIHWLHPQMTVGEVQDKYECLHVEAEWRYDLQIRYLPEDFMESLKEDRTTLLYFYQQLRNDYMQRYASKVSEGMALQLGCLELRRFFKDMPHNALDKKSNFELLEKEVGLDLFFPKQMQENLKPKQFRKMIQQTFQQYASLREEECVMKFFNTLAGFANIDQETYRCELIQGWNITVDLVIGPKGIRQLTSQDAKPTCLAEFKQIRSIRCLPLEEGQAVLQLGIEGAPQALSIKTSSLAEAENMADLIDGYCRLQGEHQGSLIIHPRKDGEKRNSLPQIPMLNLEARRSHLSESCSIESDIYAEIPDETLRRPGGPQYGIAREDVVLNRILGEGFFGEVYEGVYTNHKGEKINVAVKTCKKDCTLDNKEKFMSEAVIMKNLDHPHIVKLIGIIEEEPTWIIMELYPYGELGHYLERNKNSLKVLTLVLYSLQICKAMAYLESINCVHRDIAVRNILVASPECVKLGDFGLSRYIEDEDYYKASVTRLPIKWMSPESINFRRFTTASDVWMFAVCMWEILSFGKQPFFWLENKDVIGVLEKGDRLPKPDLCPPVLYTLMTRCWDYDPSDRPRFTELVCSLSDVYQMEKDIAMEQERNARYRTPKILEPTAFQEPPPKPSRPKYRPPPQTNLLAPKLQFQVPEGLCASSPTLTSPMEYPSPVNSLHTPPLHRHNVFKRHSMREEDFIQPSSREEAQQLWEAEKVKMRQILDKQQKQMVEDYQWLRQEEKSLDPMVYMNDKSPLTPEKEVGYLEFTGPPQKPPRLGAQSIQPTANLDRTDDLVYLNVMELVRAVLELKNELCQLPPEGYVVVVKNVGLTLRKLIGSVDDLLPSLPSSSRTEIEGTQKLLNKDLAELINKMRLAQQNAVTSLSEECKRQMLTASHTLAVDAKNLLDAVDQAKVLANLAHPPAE

Structure (SMILES) | KINOMEscan: PYK2 (panel of 442 kinases [1]) | KINOMEscan: PIM3 (panel of 442 kinases [2]) | KINOMEscan: MAP4K2 (panel of 442 kinases [3])
COc1cc(C(=O)N2CCC(N3CCN(C)CC3)CC2)ccc1Nc1ncc2c(n1)N1CCc3cccc(c31)C(=O)N2C [Compound 24] | 77 | 67 | –
CCOc1cc(C(=O)N2CCC(N3CCN(C)CC3)CC2)ccc1Nc1ncc2c(n1)N(C1CCCC1)c1ccccc1C(=O)N2C [Compound 26] | 43 | 100 | 92
COc1cc(C(=O)N2CCC(N3CCN(C)CC3)CC2)ccc1Nc1ncc2c(n1)N(C1CCCC1)c1ccccc1C(=O)N2C [Compound 25, 11-cyclopentyl-2-((2-methoxy-4-(4-(4-methylpiperazin-1-yl)piperidine-1-carbonyl)phenyl)amino)-5-methyl-5H-benzo[e]pyrimido[5,4-b][1,4]diazepin-6(11H)-one] | 17 | 78 | 100
COc1cc(C(=O)N2CCC(N3CCN(C)CC3)CC2)ccc1Nc1ncc2c(n1)N(C)c1ccccc1C(=O)N2C [15 (LRRK2-IN-1)] | 78 | 88 | 100
